Test results taken from ChEMBL document CHEMBL4842344, “Design, synthesis and biological activity evaluation of novel scopoletin-NO donor derivatives against MCF-7 human breast cancer in vitro and in vivo” (Eur J Med Chem, 2021).
Calls of active or inactive are those of the source. No cut-off for these calls is given here.

What was measured:
MCF7 [1] = test: Antiproliferative activity against human MCF7 cells assessed as inhibition of cell growth measured after 48 hrs by MTT assay; assay type: functional, cell-based; conditions: MCF7, 48 h
MCF-10A = test: Cytotoxicity against human MCF-10A cells assessed as reduction in cell viability measured after 48 hrs by MTT assay; assay type: cell-based
MDA-MB-231 = test: Antiproliferative activity against human MDA-MB-231 cells assessed as inhibition of cell growth measured after 48 hrs by MTT assay; assay type: functional, cell-based; conditions: MDA-MB-231, 48 h
[2] = Toxicity in BALB/c mouse xenografted with human MCF7 cells assessed as effect on lung at 30 to 60 mg/kg, ip measured after 21 days by hematoxylin and eosin staining based histopathological analysis; assay type: organism-based; conditions: in vivo, 504 h, dose 30-60 mg/kg, time 21 day
[3] = Toxicity in BALB/c mouse xenografted with human MCF7 cells assessed as effect on kidney at 30 to 60 mg/kg, ip measured after 21 days by hematoxylin and eosin staining based histopathological analysis; assay type: organism-based; conditions: in vivo, 504 h, dose 30-60 mg/kg, time 21 day
MCF7 [4] = test: Induction of apoptosis in human MCF7 cells assessed as dead cells at 1 uM measured after 24 hrs by Annexin-V FITC/PI staining based flow cytometry analysis (Rvb= 0.06%); assay type: functional
[5] = Toxicity in BALB/c mouse xenografted with human MCF7 cells assessed as weight loss at 30 to 60 mg/kg, ip measured after 21 days; assay type: organism-based; conditions: in vivo, 504 h, dose 30-60 mg/kg, time 21 day
MCF7 [6] = test: Induction of cell cycle arrest in human MCF7 cells assessed as accumulation of cells in G1 phase at 0.5 uM measured after 24 hrs by propidium iodide staining based flow cytometry analysis (Rvb= 54.96%); assay type: functional
MCF7 [7] = test: Inhibition of PI3K/AKT signalling pathway in human MCF7 cells assessed as reduction in AKT expression at 0.5 to 2 uM measured after 24 hrs by western blot analysis; assay type: cell-based; conditions: dose 0.5-2 µM
MCF7 [8] = test: Induction of cell cycle arrest in human MCF7 cells assessed as accumulation of cells in G2 phase at 0.5 uM measured after 24 hrs by propidium iodide staining based flow cytometry analysis (Rvb= 18.5%); assay type: functional
MCF7 [9] = test: Induction of apoptosis in human MCF7 cells assessed as dead cells at 0.5 uM measured after 24 hrs by Annexin-V FITC/PI staining based flow cytometry analysis (Rvb= 0.06%); assay type: functional
[10] = Toxicity in BALB/c mouse xenografted with human MCF7 cells assessed as effect on spleen at 30 to 60 mg/kg, ip measured after 21 days by hematoxylin and eosin staining based histopathological analysis; assay type: organism-based; conditions: in vivo, 504 h, dose 30-60 mg/kg, time 21 day
MCF7 [11] = test: Induction of cell cycle arrest in human MCF7 cells assessed as accumulation of cells in S phase at 1 uM measured after 24 hrs by propidium iodide staining based flow cytometry analysis (Rvb= 25.71%); assay type: functional
MCF7 [12] = test: Induction of cell cycle arrest in human MCF7 cells assessed as accumulation of cells in G2 phase at 1 uM measured after 24 hrs by propidium iodide staining based flow cytometry analysis (Rvb= 18.5%); assay type: functional
MCF7 [13] = test: Induction of apoptosis in human MCF7 cells assessed as late apoptotic cells at 0.5 uM measured after 24 hrs by Annexin-V FITC/PI staining based flow cytometry analysis (Rvb= 5.61%); assay type: functional
MCF7 [14] = test: Induction of apoptosis in human MCF7 cells assessed as live cells at 1 uM measured after 24 hrs by Annexin-V FITC/PI staining based flow cytometry analysis (Rvb= 93.0%); assay type: functional
MCF7 [15] = test: Induction of apoptosis in human MCF7 cells assessed as late apoptotic cells at 0.25 uM measured after 24 hrs by Annexin-V FITC/PI staining based flow cytometry analysis (Rvb= 5.61%); assay type: functional
MCF7 [16] = test: Inhibition of PI3K/AKT signalling pathway in human MCF7 cells assessed as reduction in PI3K expression at 0.5 to 2 uM measured after 24 hrs by western blot analysis; assay type: cell-based; conditions: dose 0.5-2 µM
MCF7 [17] = test: Antiproliferative activity against human MCF7 cells assessed as inhibition of cell proliferation at 2 uM pretreated with hemoglobin NO scavenger for 2 hrs followed by addition of compound and measured after 48 hrs by MTT assay; assay type: functional, cell-based
MCF7 [18] = test: Induction of apoptosis in human MCF7 cells assessed as increase in cleavage of PARP-1 at 0.5 to 2 uM measured after 24 hrs by western blot analysis; assay type: functional, cell-based; conditions: dose 0.5-2 µM
[19] = Toxicity in BALB/c mouse xenografted with human MCF7 cells assessed as effect on liver at 30 to 60 mg/kg, ip measured after 21 days by hematoxylin and eosin staining based histopathological analysis; assay type: organism-based; conditions: in vivo, 504 h, dose 30-60 mg/kg, time 21 day
MCF7 [20] = test: Antitumor activity against human MCF7 cells xenografted in ip dosed BALB/c nude mouse assessed as tumor growth inhibition administered once every 2 days for 21 consecutive days; assay type: functional, organism-based; conditions: time 21.0 day
MCF7 [21] = test: Induction of apoptosis in human MCF7 cells assessed as early apoptotic cells at 0.5 uM measured after 24 hrs by Annexin-V FITC/PI staining based flow cytometry analysis (Rvb= 1.33%); assay type: functional
MCF7 [22] = test: Induction of cell cycle arrest in human MCF7 cells assessed as accumulation of cells in G2/M phase at 0.25 to 1 uM measured after 24 hrs by propidium iodide staining based flow cytometry analysis (Rvb= 19.7%); assay type: functional; conditions: dose 0.25-1 µM
MCF7 [23] = test: Induction of apoptosis in human MCF7 cells assessed as upregulation of Bax expression at 0.5 to 2 uM measured after 24 hrs by western blot analysis; assay type: functional, cell-based; conditions: dose 0.5-2 µM
MCF7 [24] = test: Induction of cell cycle arrest in human MCF7 cells assessed as accumulation of cells in G1 phase at 1 uM measured after 24 hrs by propidium iodide staining based flow cytometry analysis (Rvb= 54.96%); assay type: functional
MCF7 [25] = test: Induction of apoptosis in human MCF7 cells assessed as early apoptotic cells at 0.25 uM measured after 24 hrs by Annexin-V FITC/PI staining based flow cytometry analysis (Rvb= 1.33%); assay type: functional
MCF7 [26] = test: Induction of apoptosis in human MCF7 cells assessed as early apoptotic cells at 1 uM measured after 24 hrs by Annexin-V FITC/PI staining based flow cytometry analysis (Rvb= 1.33%); assay type: functional
MCF7 [27] = test: Induction of cell cycle arrest in human MCF7 cells assessed as accumulation of cells in S phase at 0.5 uM measured after 24 hrs by propidium iodide staining based flow cytometry analysis (Rvb= 25.71%); assay type: functional
MCF7 [28] = test: Inhibition of cell proliferation in human MCF7 cells assessed as increase in intracellular NO production at 25 uM measured after 2.5 hrs by nitric oxide assay; assay type: functional, cell-based
MCF7 [29] = test: Induction of apoptosis in human MCF7 cells assessed as dead cells at 0.25 uM measured after 24 hrs by Annexin-V FITC/PI staining based flow cytometry analysis (Rvb= 0.06%); assay type: functional
[30] = Toxicity in BALB/c mouse xenografted with human MCF7 cells assessed as effect on heart at 30 to 60 mg/kg, ip measured after 21 days by hematoxylin and eosin staining based histopathological analysis; assay type: organism-based; conditions: in vivo, 504 h, dose 30-60 mg/kg, time 21 day
MCF7 [31] = test: Induction of cell cycle arrest in human MCF7 cells assessed as accumulation of cells in G2 phase at 0.25 uM measured after 24 hrs by propidium iodide staining based flow cytometry analysis (Rvb= 18.5%); assay type: functional
MCF7 [32] = test: Antitumor activity against human MCF7 cells xenografted in BALB/c nude mouse assessed as reduction in tumor volume at 30 mg/kg, ip administered once every 2 days for 21 consecutive days relative to control; assay type: functional; set-up: scale not given: the % may be the effect or the level left; conditions: time 21 day
MCF7 [33] = test: Induction of apoptosis in human MCF7 cells assessed as late apoptotic cells at 1 uM measured after 24 hrs by Annexin-V FITC/PI staining based flow cytometry analysis (Rvb= 5.61%); assay type: functional
MCF7 [34] = test: Antitumor activity against human MCF7 cells xenografted in BALB/c nude mouse assessed as tumor growth inhibition at 60 mg/kg, ip administered once every 2 days for 21 consecutive days relative to control; assay type: functional; conditions: 504 h, time 21 day, read-out: TGI
MCF7 [35] = test: Induction of cell cycle arrest in human MCF7 cells assessed as accumulation of cells in G1 phase at 0.25 uM measured after 24 hrs by propidium iodide staining based flow cytometry analysis (Rvb= 54.96%); assay type: functional
MCF7 [36] = test: Induction of apoptosis in human MCF7 cells assessed as downregulation of Bcl-2 expression at 0.5 to 2 uM measured after 24 hrs by western blot analysis; assay type: functional, cell-based; conditions: dose 0.5-2 µM
MCF7 [37] = test: Antitumor activity against human MCF7 cells xenografted in BALB/c nude mouse assessed as reduction in tumor weight at 30 to 60 mg/kg, ip administered once every 2 days for 21 consecutive days; assay type: functional, organism-based; conditions: dose 30-60 mg/kg, time 21.0 day
MCF7 [38] = test: Induction of apoptosis in human MCF7 cells assessed as upregulation of Bad expression at 0.5 to 2 uM measured after 24 hrs by western blot analysis; assay type: functional, cell-based; conditions: dose 0.5-2 µM
MCF7 [39] = test: Induction of cell cycle arrest in human MCF7 cells assessed as accumulation of cells in sub G1 phase at 0.25 to 1 uM measured after 24 hrs by propidium iodide staining based flow cytometry analysis (Rvb= 21.1%); assay type: functional; conditions: dose 0.25-1 µM
MCF7 [40] = test: Induction of apoptosis in human MCF7 cells assessed as live cells at 0.5 uM measured after 24 hrs by Annexin-V FITC/PI staining based flow cytometry analysis (Rvb= 93.0%); assay type: functional
MCF7 [41] = test: Inhibition of PI3K/AKT signalling pathway in human MCF7 cells assessed as reduction in phosphorylated AKT expression measured after 24 hrs by western blot analysis; assay type: cell-based; conditions: dose 0.5-2 µM
MCF7 [42] = test: Potency index, ratio of scopoletin derivative 5 IC50 to test compound IC50 for human MCF7 cells assessed as inhibition of cell growth measured after 48 hrs by MTT assay; assay type: functional
MCF7 [43] = test: Induction of cell cycle arrest in human MCF7 cells assessed as accumulation of cells in S phase at 0.25 uM measured after 24 hrs by propidium iodide staining based flow cytometry analysis (Rvb= 25.71%); assay type: functional
MCF7 [44] = test: Induction of apoptosis in human MCF7 cells assessed as live cells at 0.25 uM measured after 24 hrs by Annexin-V FITC/PI staining based flow cytometry analysis (Rvb= 93.0%); assay type: functional
MCF7 [45] = test: Inhibition of PI3K/AKT signalling pathway in human MCF7 cells assessed as reduction in phosphorylated PI3K expression measured after 24 hrs by western blot analysis; assay type: cell-based; conditions: dose 0.5-2 µM

## COc1cc2cc(N)c(=O)oc2cc1OCCCOc1no[n+]([O-])c1S(=O)(=O)c1ccccc1
MCF7 [1]
  IC50: 2020 nM
MCF-10A
  IC50: 6450 nM
MDA-MB-231
  IC50: 1390 nM

## COc1cc2cc(C(=O)NCc3ccc(F)cc3)c(=O)oc2cc1OCCCOc1no[n+]([O-])c1S(=O)(=O)c1ccccc1
[2]
  Activity: Non-Toxic
[3]
  Activity: Non-Toxic
MCF7 [4]
  Activity: 1.41%
[5]
  Activity: Non-Toxic
MCF7 [6]
  Activity: 40.11%
MCF7 [7]
  inhibition: inactive
MCF7 [8]
  Activity: 38.44%
MCF7 [9]
  Activity: 0.196%
[10]
  Activity: Non-Toxic
MCF7 [11]
  Activity: 18.16%
MCF7 [12]
  Activity: 44.96%
MCF7 [13]
  Activity: 9.19%
MCF7 [14]
  Activity: 62%
MCF7 [15]
  Activity: 6.53%
MCF7 [16]
  inhibition: inactive
MCF7 [17]
  Activity: inactive
MCF7 [18]
  Activity: Active
[19]
  Activity: Non-Toxic
MCF7 [20]
  Activity: Dose-Dependent Effect
MCF7 [21]
  Activity: 7.49%
MCF7 [22]
  Activity: 47.1%
MCF7 [23]
  Activity: Active
MCF7 [24]
  Activity: 36.65%
MCF7 [25]
  Activity: 5.72%
MCF7 [26]
  Activity: 9.38%
MCF7 [27]
  Activity: 19.05%
MCF7 [28]
  Activity: Active
MCF7 [29]
  Activity: 0.153%
[30]
  Activity: Non-Toxic
MCF7 [31]
  Activity: 25.76%
MCF7 [32]
  Activity: 63.3%
MCF7 [33]
  Activity: 27.2%
MCF7 [34]
  inhibition in vivo at 60 mg/kg: 75.2%
MCF7 [1]
  IC50: 370 nM
MCF7 [35]
  Activity: 52.88%
MCF7 [36]
  Activity: Dose-Dependent Effect
MCF7 [37]
  Activity: Active
MCF7 [38]
  Activity: Active
MCF-10A
  IC50: 8460 nM
MCF7 [39]
  Activity: 50%
MCF7 [40]
  Activity: 83.1%
MCF7 [41]
  inhibition: Dose-Dependent Effect
MCF7 [42]
  Ratio IC50: 5
MCF7 [43]
  Activity: 20.8%
MCF7 [44]
  Activity: 87.5%
MCF7 [45]
  inhibition: Dose-Dependent Effect
MDA-MB-231
  IC50: 770 nM
